Laboratory results taken from ChEMBL document CHEMBL1629665, “Contribution of vraSR and graSR point mutations to vancomycin resistance in vancomycin-intermediate Staphylococcus aureus” (2009).
Values after ≈ are worked out from the molar mass of the structure shown. Where a SMILES comes first, the peptide text is derived from it. Bridges are numbered along the chain shown (N, C = ends). [ ]: non-standard residue; d: D form. The star is where a group is joined. Ileψ(thiazoline)Cys = CC[C@H](C)[C@H](N)C1=N[C@H](C(=O)*)CS1; dOrn = NCCC[C@@H](N)C(=O)O

What was measured:
Assay type in all cases: functional
[1] = system: Staphylococcus aureus; test: Antibacterial activity against vancomycin-intermediate Staphylococcus aureus Mu50 after 24 hrs by Etest; details: Mu50, 24 h
[2] = system: Staphylococcus aureus; test: Antibacterial activity against vancomycin-susceptible Staphylococcus aureus Mu50omega after 24 hrs by Etest
[3] = system: Staphylococcus aureus; test: Antibacterial activity against vancomycin-susceptible Staphylococcus aureus Mu50omega expressing vraSn mutant gene after 24 hrs by Etest
[4] = system: Staphylococcus aureus; test: Antibacterial activity against vancomycin-susceptible Staphylococcus aureus Mu50omega expressing vraSm mutant gene after 24 hrs by Etest
[5] = system: Staphylococcus aureus; test: Antibacterial activity against vancomycin-susceptible Staphylococcus aureus Mu50omega expressing vraSm, graRm mutant gene after 24 hrs by Etest
[6] = system: Staphylococcus aureus; test: Antibacterial activity against vancomycin-intermediate Staphylococcus aureus Mu50 after 48 hrs by Etest; details: Mu50, 48 h
[7] = system: Staphylococcus aureus; test: Antibacterial activity against vancomycin-susceptible Staphylococcus aureus Mu50omega after 48 hrs by Etest
[8] = system: Staphylococcus aureus; test: Antibacterial activity against vancomycin-susceptible Staphylococcus aureus Mu50omega expressing vraSn mutant gene after 48 hrs by Etest
[9] = system: Staphylococcus aureus; test: Antibacterial activity against vancomycin-susceptible Staphylococcus aureus Mu50omega expressing vraSm mutant gene after 48 hrs by Etest
[10] = system: Staphylococcus aureus; test: Antibacterial activity against vancomycin-susceptible Staphylococcus aureus Mu50omega expressing vraSm, graRm mutant gene after 48 hrs by Etest

Compound	MIC [1] [µg/mL]	MIC [2] [µg/mL]	MIC [3] [µg/mL]	MIC [4] [µg/mL]	MIC [5] [µg/mL]	MIC [6] [µg/mL]	MIC [7] [µg/mL]	MIC [8] [µg/mL]	MIC [9] [µg/mL]	MIC [10] [µg/mL]
CN(C)[C@@H]1C(O)=C(C(N)=O)C(=O)[C@@]2(O)C(O)=C3C(=O)c4c(O)cccc4[C@@](C)(O)[C@H]3C[C@@H]12 [TETRACYCLINE]	32 (≈ 72 µM)	32 (≈ 72 µM)	24 (≈ 54 µM)	24 (≈ 54 µM)	24 (≈ 54 µM)	48 (≈ 108 µM)	48 (≈ 108 µM)	48 (≈ 108 µM)	48 (≈ 108 µM)	48 (≈ 108 µM)
CC[C@H](C)[C@H](N)C1=N[C@H](C(=O)N[C@@H](CC(C)C)C(=O)N[C@H](CCC(=O)O)C(=O)N[C@H](C(=O)N[C@H]2CCCCNC(=O)[C@H](CC(N)=O)NC(=O)[C@@H](CC(=O)O)NC(=O)[C@H](Cc3cnc[nH]3)NC(=O)[C@@H](Cc3ccccc3)NC(=O)[C@H]([C@@H](C)CC)NC(=O)[C@@H](CCCN)NC2=O)[C@@H](C)CC)CS1 [BACITRACIN] ({Ileψ(thiazoline)Cys}-L[dE]IK[dOrn]I[dF]H[dD]N; lactam 4-C)	> 256	12 (≈ 8.43 µM)	128 (≈ 90 µM)	256 (≈ 180 µM)	256 (≈ 180 µM)	> 256	24 (≈ 16.9 µM)	256 (≈ 180 µM)	> 256	> 256
CC(=O)NC[C@H]1CN(c2ccc(N3CCOCC3)c(F)c2)C(=O)O1 [LINEZOLID]	0.5 (≈ 1.48 µM)	0.5 (≈ 1.48 µM)	0.5 (≈ 1.48 µM)	0.5 (≈ 1.48 µM)	0.5 (≈ 1.48 µM)	0.5 (≈ 1.48 µM)	0.5 (≈ 1.48 µM)	0.5 (≈ 1.48 µM)	0.5 (≈ 1.48 µM)	0.5 (≈ 1.48 µM)
CC(=O)OCC1=C(C(=O)O)N2C(=O)[C@@H](NC(=O)Cc3cccs3)[C@H]2SC1 [CEPHALOTHIN]	128 (≈ 323 µM)	0.25 (≈ 0.631 µM)	> 256	> 256	> 256	128 (≈ 323 µM)	0.38 (≈ 0.959 µM)	> 256	> 256	> 256
CCC[C@@H]1C[C@@H](C(=O)N[C@@H]([C@H]2O[C@H](SC)[C@H](O)[C@@H](O)[C@H]2O)[C@H](C)Cl)N(C)C1 [CLINDAMYCIN]	> 256	> 256	–	–	–	> 256	> 256	–	–	–
C[C@H]1c2cccc(O)c2C(=O)C2=C(O)[C@]3(O)C(=O)C(C(N)=O)=C(O)[C@@H](N(C)C)[C@@H]3[C@@H](O)[C@@H]21.O [DOXYCYCLINE]	8	8	8	8	8	> 256	> 256	–	–	–
CO/N=C(\C(=O)N[C@@H]1C(=O)N2C(C(=O)O)=C(CSc3nc(=O)c(O)nn3C)CS[C@H]12)c1csc(N)n1 [CEFTRIAXONE]	> 256	3 (≈ 5.41 µM)	> 0.256	> 256	> 256	> 256	> 256	–	–	–
CCCCCCCCCC(=O)N[C@@H](Cc1c[nH]c2ccccc12)C(=O)N[C@H](CC(N)=O)C(=O)N[C@@H](CC(=O)O)C(=O)N[C@@H]1C(=O)NCC(=O)N[C@@H](CCCN)C(=O)N[C@@H](CC(=O)O)C(=O)N[C@H](C)C(=O)N[C@@H](CC(=O)O)C(=O)NCC(=O)N[C@H](CO)C(=O)N[C@@H]([C@H](C)CC(=O)O)C(=O)N[C@@H](CC(=O)c2ccccc2N)C(=O)O[C@@H]1C	2 (≈ 1.23 µM)	1 (≈ 0.617 µM)	1.5 (≈ 0.926 µM)	1.5 (≈ 0.926 µM)	2 (≈ 1.23 µM)	2 (≈ 1.23 µM)	1 (≈ 0.617 µM)	1.5 (≈ 0.926 µM)	1.5 (≈ 0.926 µM)	2 (≈ 1.23 µM)
CO/N=C(\C(=O)N[C@@H]1C(=O)N2C(C(=O)O)=CCS[C@H]12)c1csc(N)n1 [CEFTIZOXIME]	> 256	0.38 (≈ 0.991 µM)	> 256	> 256	> 256	> 256	0.5 (≈ 1.3 µM)	> 256	> 256	> 256
C[C@@H]1CN(c2c(F)c(N)c3c(=O)c(C(=O)O)cn(C4CC4)c3c2F)C[C@H](C)N1 [SPARFLOXACIN]	> 32	> 32	–	–	–	> 32	> 32	–	–	–
C[C@H]1COc2c(N3CCN(C)CC3)c(F)cc3c(=O)c(C(=O)O)cn1c23.C[C@H]1COc2c(N3CCN(C)CC3)c(F)cc3c(=O)c(C(=O)O)cn1c23.O [LEVOFLOXACIN]	> 32	> 32	–	–	–	> 32	> 32	–	–	–
Cc1onc(-c2ccccc2)c1C(=O)N[C@@H]1C(=O)N2[C@@H]1SC(C)(C)[C@@H]2C(=O)O [OXACILLIN]	> 256	8 (≈ 19.9 µM)	> 256	> 256	> 256	> 256	8 (≈ 19.9 µM)	> 256	> 256	> 256
